The text below walks through data of patent publication US5863716A, “Treatment of plasmodium” (The Leland Stanford Junior University Board of Trustees, priority 1997, dated 1999).

SMILES strings stand for the structures. Where two headings read alike, the source gives them in different places.

What all share (type): cell-based, Plasmodium falciparum
One assay deals with sphingomyelin synthase. The experiment in a line: Inhibition of plasmodial sphingomyelin biosynthesis in intact infected erythrocytes (C6-NBD-ceramide to C6-NBD-sphingomyelin, TLC). Particulars: for [%] inhibition of sphingomyelin biosynthetic activity: 5 μM of compound; for effect on enzyme (sphingomyelin synthase) activity: 5 μM, see Example 3. How it is done: 1×10^8 infected cells 24 h after invasion were washed serum-free in RPMI 1640 and preincubated for thirty min at 37° C. in 1 ml of RPMI 1640 containing 0-5 μM or 0-500 μM of PPMP. (C6-NBD-ceramide (N-[7-(4-nitrobenzo-2-oxa-1,3-diazide)]-6-aminocaproyl-D-erythro-sphingosine) was added to each sample at a final concentration of 5 μM, the samples further incubated for 30 min at 37° C. and cellular lipids extracted. C6-NBD-sphingomyelin was resolved by TLC and quantitated by fluorescence spectrophotometry as described previously. Bligh, E. G. and Dyer, W. Y. (1959) A rapid method for total lipid extraction and purification., Can. J. Biochem. Physiol. 37: 911-917. Haldar, K., Uyetake, L., Ahori, N., Elmendorf, H. G. and Lu, W-1. (1991) The accumulation and metabolism of a fluorescent ceramide derivative in Plasmodium falciparum--infected erythrocytes., Mo. Biochem. Parasitol. 49: 143-156. Elmendorf, H. G. and Haldar, K. (1994) Plasmodium falciparum exports the Golgi marker sphingomyelin synthase into a tubovesicular network in the cytoplasm of mature erythrocytes., J. Cell Biol. 124: 449-462. Each value obtained represented the mean of triplicate determinations from five experiments. The arrow bars indicate the standard deviations. The results are depicted in FIG. 1.
(§1) P. falciparum strain FCB was used for all experiments and cultured in vitro in according to a modification of the method of Trager and Jensen left off. Trager, W. and Jensen, J. B. (1976) Human malaria in continuous culture., Science (Wash. D.C.) 193: 673-675 Haldar, K., Ferguson, M. A. J. and Cross, G. A. M. (1985) Acylation of a Plasmodium falciparum merozoite surface antigen via sn-1, 2-diacyl glycerol. J. Biol. Chem. 260; 4969-4974. The culture medium contained RPMI 1640 supplemented with 25 Mm hepes, Ph 7.4/11 […] glucose/92 μM hypoxanthine/0.18% sodium bicarbonate/25 μM gentamicin and 10% AB^+ human sera. The parasites were grown in A^+ erythrocytes at 2.5-5% hematocrit. Parasite cultures were synchronized by separation of the early and late stages on a Percoll gradient. The subsequent reincubation of these stages in culture were used to obtain cells 12-24 h in the life cycle. Inhibition of sphingomyelin biosynthetic activity using 5 μM of the various compounds was carried out as described in Example 1. 5 μM of the various compounds were added to 0-12 h rings in the culture medium and cells were examined by Giemsa staining after 24 h.

Another assay relates to P. falciparum strain FCB. The experiment in a line: Inhibition of intraerythrocytic growth in culture, Giemsa staining after 24 h. The conditions noted are these: for inhibition at 5 µM: Plasmodium falciparum, read-out: [%] inhibition of growth.
From the text: as §1

Another assay deals with P. falciparum. The experiment in a line: Intraerythrocytic development in long term synchronized culture, parasitemia over consecutive cycles. The conditions noted are these: Plasmodium falciparum; over three cycles of growth; read-out: lowest effective, killing concentration. How it is done:
Synchronized cultures 12 h after invasion were subjected to different concentrations of PPMP. Parasitemias of drug-treated cultures were determined at various time points during two intraerythrocytic cycles and compared to cells grown in the absence of drug.
The effect of the single lipid analogs to inhibit parasite development in long term culture in consecutive cycles of the parasite growth were investigated. The studies were initiated with synchronized, young rings (0-12h) at 10% parasitemia. In order to ensure healthy growth of the malaria parasite in vitro, the parasitemias of the cultures are not allowed to exceed 10%. Yet under normal conditions a 3-6 fold increase in parasitemias is detected with each round of invasion: thus for each new cycle, the cultures were diluted 4-fold into fresh erythrocytes in the absence or presence of the drug. […] The lowest effective, killing concentration of PDMP over three cycles of growth is 1.0 μM.

In assay [1] the test system is P. falciparum schizonts and merozoites. The experiment in a line: Schizont maturation and merozoite invasion in the presence of drug. The conditions noted are these: 5 μM. The protocol:
Schizont-stage parasites isolated over Percoll were allowed to invade in the presence of RPMI 1640 containing 10% human serum or in the presence of RPMI 1640 containing 10% human serum and 5 μM PPMP. 1×10^8 infected erythrocytes of the appropriate stage were incubated in 1 ml of RPMI 1640 supplemented with 2mg/ml defatted BSA and 20 μM C5 -DMB-ceramide. Cells were washed and fixed as described in Example 5. Sequential micrographs were taken on a custom made laser confocal microscope at 400 nm intervals along the Z axis. Raw data were processed as described previously.
Furthermore, the released daughter merozoites enter red cells to form new rings in the continued presence of the drug. This supports the conclusion that the parasite sphingomyelin synthase is essential only to ring and trophozoite-infected red cells in the first 30 to 36 h of intraerythrocytic development.
To determine whether the parasite specific sphingomyelin synthase activity is required for the development of the TVM, ring-infected erythrocytes inhibited in the enzyme from the onset of intra- erythrocytic development were employed. […] Optical sections obtained by staining with C5 DMB-ceramide were observed. A tubular structure was seen extending from the body of the parasite apparently connected to a larger vesicle in the red cell. In rings formed in the presence of PPMP, the intraerythrocytic structures are seen as discrete domains, separated from each other in all three sections. […] Thus, specific inhibition of the parasite's sphingomyelin biosynthetic activity appears to alter the interconnected "tubovesicular morphology" of the TVM into isolated intraerythrocytic compartments or "vesicles" in ring stage parasites.

[2] abbreviates: 5 μM added to 0-12 h rings, Giemsa staining after 24 h.

In general, inhibition refers to how much of the control response was suppressed.

As for `CCCCCCCCCCCCCCC[C@H](O)[C@@H](N)CO` (racemic) [dl-dihydrosphingosine], in the assay on sphingomyelin synthase, the “[%] inhibition of sphingomyelin biosynthetic activity” value came to 4% and the “effect on enzyme (sphingomyelin synthase) activity” value is “no effect”. Besides, the “[%] inhibition of growth” value in the assay on P. falciparum strain FCB (setting [2]) came to 8%.

Turning to `CCCCCCCCCC(=O)N[C@@H](CN1CCOCC1)[C@H](O)c1ccccc1` (relative stereo) [dl-erythro-PDMP], the inhibition at 5 µM in the assay with P. falciparum strain FCB (setting [2]) was 5%.

Consider `CCCCCCCCCC(=O)N[C@H](CN1CCOCC1)[C@H](O)c1ccccc1` (relative stereo) [dl-threo-PDMP, dl-threo-1-phenyl-2-decanoylamino-3-morpholino-1-propanol], for which, in the assay on P. falciparum strain FCB (setting [2]), the inhibition at 5 µM was 100%. For the same compound, the minimal effective concentration in the assay with P. falciparum was 1 µM. The “fate of schizonts greater than 40 h in the cycle” value in assay [1] was “mature and rupture”.

Regarding `CCN(CC)CCO[C@H]1CC[C@@]2(C)C(=CC[C@@H]3[C@@H]2CC[C@]2(C)C(=O)CC[C@@H]32)C1` [U 18666 A], the “[%] inhibition of sphingomyelin biosynthetic activity” value in the assay on sphingomyelin synthase stood at 0%. Moreover, the inhibition at 5 µM in the assay on P. falciparum strain FCB (setting [2]) was 1%.

Consider `CN(C)CCCN1c2ccccc2CCc2ccccc21` [imipramine], for which, in the assay on sphingomyelin synthase, the “[%] inhibition of sphingomyelin biosynthetic activity” value amounted to 0%. Besides, in the assay with P. falciparum strain FCB, the inhibition at 5 µM amounted to 7%.

Turning to `CCCCCCCCCCCCC/C=C/[C@@H](O)[C@@H](N)CO` [sphingosine], in the assay on sphingomyelin synthase, the “[%] inhibition of sphingomyelin biosynthetic activity” value is recorded as 0% and the “effect on enzyme (sphingomyelin synthase) activity” value was “no effect”. Further, the inhibition at 5 µM in the assay on P. falciparum strain FCB came to 0%.

Take `CCCCCCCCCCCCCCCCCCN` [stearylamine]: in the assay with P. falciparum strain FCB (setting [2]), the inhibition at 5 µM worked out at 0%.
